{"source": "patent US11446253B2", "about": "“Ionic liquids for internal delivery” (priority 2017, dated 2022)", "key": {"4T1 cells": {"test_system": "4T1 cells", "experiment": "4T1 cell viability, calcein-AM assay", "assay_type": "cell-based", "conditions": "drug solubilized in CAGE (1:1) vs DMSO", "description": "In vitro anticancer efficacy of drug-loaded liposomes was determined using calcein-AM cell viability assay (Life Technologies). 4T1 cells were seeded in a 96-well cell culture plate at a density of 11,000 cells per well or 1,000 cells per well in a total volume of 100 μL media and allowed to adhere overnight. […] After incubation with drug, media was aspirated and replaced with 1 μM calcein-AM in PBS for 30 minutes at room temperature. Fluorescence intensity of intracellularly hydrolyzed calcein-AM was measured using excitation and emission wavelengths of 490 nm and 520 nm. Fractional cell inhibition was calculated by subtracting fluorescence of live cells in experimental wells from those of untreated cells and normalizing against untreated cells."}, "[1]": {"experiment": "Solubility of hydrophobic drugs in CAGE", "conditions": "organic solvent or mixture"}, "rats": {"test_system": "rats", "conditions": "cited from earlier work"}, "physchem": {"experiment": "physchem", "conditions": "organic solvent or mixture"}, "Caco-2 cells": {"test_system": "Caco-2 cells", "experiment": "Tight junction integrity (TEER) in Caco-2 cells", "assay_type": "cell-based, human", "conditions": "10 mM sodium caprate, end of study at 24 h", "description": "[…] Furthermore, TEER was measured at every time point when aliquots were withdrawn from the transwells and plotted as % change from initial value vs time.\nTEER values were recorded for each insert. […] TEER was plotted as % change from initial value vs time."}, "[2]": {"test_system": "non-diabetic male Wistar rats", "experiment": "In vivo bioactivity of insulin isolated from CAGE after storage", "set-up": "species or system rat", "conditions": "for blood glucose, % of initial level: 1 U/kg subcutaneous", "excerpt": "Prior to insulin injections, rats were fasted overnight but given free access to water and fasting continued throughout the study to eliminate variability in blood glucose due to food consumption. The results were plotted as % change in blood glucose compared to initial level vs time."}, "[3]": {"conditions": "in vivo; cited from earlier work"}}, "note": "Where “and” joins values, the source holds several entries; their conditions need not be identical. Equal values may be shown once. Entries after “also recorded” stand apart in the source; their conditions may differ. Read-outs that look alike come from different tables or passages of the source."}
{"molecule": "CC[C@@]1(O)C(=O)OCc2c1cc1n(c2=O)Cc2cc3ccccc3nc2-1", "note": "[Camptothecin]", "values": [{"measurement": "effect on 4T1 cells", "setting": "4T1 cells", "value": "just as effective as those solubilized in DMSO"}, {"measurement": "solubility", "setting": "[1]", "value": 54, "unit": "mg/mL"}]}
{"molecule": "C[N+](C)(C)CCO", "note": "[Choline]", "values": [{"measurement": "oral LD50", "setting": "rats; oral", "value": "3,400 mg/kg"}]}
{"molecule": "CC(=O)O[C@H]1C(=O)[C@@]2(C)[C@H]([C@H](OC(=O)c3ccccc3)[C@]3(O)C[C@H](OC(=O)[C@H](O)[C@@H](NC(=O)c4ccccc4)c4ccccc4)C(C)=C1C3(C)C)[C@]1(OC(C)=O)CO[C@@H]1C[C@@H]2O", "note": "[Paclitaxel]", "values": [{"measurement": "effect on 4T1 cells", "setting": "4T1 cells", "value": "just as effective as those solubilized in DMSO"}, {"measurement": "solubility", "setting": "physchem", "value": 200, "unit": "mg/mL"}]}
{"molecule": "CC(C)=CCC/C(C)=C/C(=O)O", "note": "[geranic acid]", "values": [{"measurement": "oral LD50", "setting": "rats; rat, in vivo, po", "value": "3,700 mg/kg"}]}
{"molecule": "CCCCCCCCCC(=O)[O-].[Na+]", "note": "[sodium caprate, reference compound]", "values": [{"measurement": "tight junction integrity (TEER), % of initial levels", "setting": "Caco-2 cells", "value": 36, "unit": "%"}]}
{"molecule": "insulin isolated from CAGE: insulin stored in CAGE, isolated by centrifugation and washing, re-suspended in sterile saline", "values": [{"measurement": "bioactivity after storage", "setting": "[2]; stored at 4° C. with CAGE, 4 months", "value": "did not show any loss in bioactivity; also recorded: retained its bioactivity"}, {"measurement": "blood glucose, % of initial level", "setting": "[2]; stored in CAGE at RT for 3 months, 1 h", "value": "61.57±2.38% and 62±2%"}, {"measurement": "blood glucose, % of initial level", "setting": "[2]; stored in CAGE at RT for 3 months, 2 h", "value": "61.98±3.19% and 62±3%"}, {"measurement": "drop in blood glucose", "setting": "[2]; stored in CAGE at RT for 3 months, 1 and 2 h after injection", "value": 38, "unit": "%"}]}
{"molecule": "orally administered insulin solution: literature comparator of Ansari et al.", "values": [{"measurement": "oral bioavailability", "setting": "[3]", "value": 1.7, "unit": "%"}]}
